The values that follow come from US20010018422A1, “Dolastatin 15 derivatives” (BASF Aktiengesellschaft, priority 1999, published 2001).

The test system of data set [1] is tumor cells such as the HT-29 colon carcinoma or LX-1 lung tumor. In words: Cytotoxicity, microculture tetrazolium assay (MTT). It counts as cell-based. The conditions noted are these: 48 hours incubation, T/C of 50%, cell line not given. As to the method:
Cytotoxicity was measured using a standard methodology for adherent cell lines, such as the microculture tetrazolium assay (MTT). Details of this assay have been published (Alley, M. C. et al., Cancer Research 48: 589-601, 1988). Exponentially growing cultures of tumor cells such as the HT-29 colon carcinoma or LX-1 lung tumor were used to make microtiter plate cultures. Cells were seeded at 5000-20,000 cells per well in 96-well plates (in […] of media), and grown overnight at 37° C. Test compounds were added, in 10-fold dilutions varying from 10^−4 M to 10^−10 M. Cells were then incubated for 48 hours. To determine the number of viable cells in each well, the MTT dye was added ([…] of a 3 mg/mL solution of 3-(4,5-dimethylthiazol-2-yl)-2,5-diphenyltetrazolium bromide in saline). This mixture was incubated at 37° C. for 5 hours, and then […] of 25% SDS, pH 2, was added to each well. After an overnight incubation, the absorbance of each well at 550 nm was read using an ELISA reader. The values for the mean+/−SD of data from replicated wells were calculated, using the formula % T/C (% viable cells treated/control). The concentration of test compound which gives a T/C of 50% growth inhibition was designated as the IC50.

For data set [2] the following is noted: synthetic Dolastatin 15; cited from earlier work.
For data set [3], the system named is National Cancer Institute's P388 lymphocytic leukemia (PS system) cell line. Particulars: cited from earlier work.

For orientation: IC50 means the concentration that inhibits the measured activity by half. A low value points to inhibition by little substance. “2-(Me2Val-Val-MeVal-Pro-NH)—C6H4—CO—CH3 [IV-1]” displayed an IC50 in data set [1] above 1000 nM.
`CNC(=O)c1cccc(C2CCCC2)c1NC(=O)[C@@H]1CCCN1C(=O)[C@H](C(C)C)N(C)C(=O)[C@@H](NC(=O)[C@H](C(C)C)N(C)C)C(C)C` [Compound I-7, 2-(Me2ValVal-MeVal-ProNH)-3-cyclopentanyl-C6H3C(O)NHCH3] had an IC50 in data set [1] of 400 nM.
Same read-out and setting: in the case of `CON(C)C(=O)c1ccccc1NC(=O)[C@@H]1CCCN1C(=O)[C@H](C(C)C)N(C)C(=O)C(NC(=O)[C@H](C(C)C)N(C)C)C(C)C` (stereo partly drawn) [Compound I-60, (2)-(Me2Val-Val-MeVal-Pro-NH)—C6H4—CON(CH3)(OCH3)] it was 400 nM; in that of `CC(C)C(NC(=O)[C@H](C(C)C)N(C)C)C(=O)N(C)[C@H](C(=O)N1CCC[C@H]1C(=O)NC1CCCC1C(=O)NCc1ccccc1)C(C)C` (stereo partly drawn) [VII-2, Me2-Val-Val-MeVal-Pro-[cis-2-aminocyclopentanecarboxylic acid]-NHBn], above 1000 nM.
Regarding Dolastatin 15, the “solubility in aqueous systems” value in data set [2] is on record as “poor solubility”. Besides, the “inhibition of growth of P388 cell line” value in data set [3] is recorded as “markedly inhibits the growth”.
